In US12240855B2, “Pyrrolopyrazole derivative” (DAIICHI SANKYO COMPANY, LIMITED, priority 2019, dated 2025):
pIC50: −log10 of the molar value.

Columns and labels:
[1] = target: PSS1 (Homo sapiens, UniProt P48651); assay: biochemical
[2] = tested on: PTDSS2-KO HCT116 cell-subcutaneous transplanted model; assay: Test Example 4: Antitumor activity on PTDSS2-KO HCT116 cell-subcutaneous transplanted model; assay type: in vivo, female BALB/c-nu/nu mice; conditions: oral, QD × 13, test end date
Source text: HCT116 cell-subcutaneous transplanted model PTDSS2-KO HCT116 cells were transplanted to a right subcutaneous axillary portion of female BALB/c-nu/nu mice at a proportion of 1×10^7 cells/head, and when the tumor volume reached 100 to 300 mm^3 (estimated tumor volume (major axis×minor axis×minor axis/2)), mice were divided into groups of 6 or 5 mice each such that there was no difference between groups. The female BALB/c-nu/nu mice were purchased from CHARLES RIVER LABORATORIES JAPAN, INC. The compounds of Examples 58, 57, 53, 30, 42, 32, 34, 33, and 31 were orally administered from the day of grouping in the dosing schedule shown in Table 12 (twice daily, 11 successive days (BID×11), or once daily, 13 successive days (QD×13)). The tumor volume was measured until the next day of completion of the administration (test end date). 0.5% methylcellulose (MC) was administered to the vehicle control group as the vehicle.
TGI %=(1−TVt/TVc)×100 • TGI: Tumor growth suppression rate • TVt: Group mean tumor volume of compound administration group on test end date • TVc: Group mean tumor volume of vehicle control group on test end date

[3] = tested on: HCT116 cells; assay: cells; conditions: Homo sapiens, HCT-116, 72 h, read-out: Test Example 3 HCT116 GI50
Protocol: (§1) McCoy's 5A medium containing 10% bovine serum was used as the culture medium for each cell. […] They were added to each well of 384-well plates at 40 nL/well using an Echo555 (Labcyte Inc.). […] On the day of compound addition (day 0) and 3 days after compound addition (day 3), 10 μL/well of CellTiter-Glo® 2.0 Assay (Promega, #G9242), which is a reagent for ATP measurement, was added to each well, and the amount of luminescence in each well was measured with EnVision. From the amount of luminescence on the day of compound addition (C0) and the amount of luminescence of the compound non-addition group (C3) and compound addition group (T3) after 3 days of culture, cell viability was calculated based on the following formula. Cell viability (%)=[(T3−C0)/(C3−C0)]×100

[4] = tested on: Jeko-1 cells; assay: Test Example 7: Cell growth suppression activity 4 (Jeko-1); assay type: cell-based; conditions: 72 h; Jeko-1 cells derived from human mantle cell lymphoma, 3 days of culture, ATP measurement (CellTiter-Glo 2.0)
Protocol: Jeko-1 cells derived from human mantle cell lymphoma were used. […] Jeko-1 cells were purchased from ATCC. Jeko-1 cells were seeded into 96 well plates at 50,000 cells/50 μL/well (day 0). The compound of Example 42 was serially diluted and prepared (10 steps, 30 μM-3 nM) and added to each well of 96 well plates at 50 μL/well. […] Cell viability (%)=[(T3−C0)/(C3−C0)]×100

[5] = tested on: NCI-N87 cells; assay: Test Example 5: Cell growth suppression activity 2 (NCI-N87); assay type: cell-based; conditions: 168 h; NCI-N87 cells derived from human stomach cancer, 7 days of culture, ATP measurement (CellTiter-Glo 2.0)
Protocol: NCI-N87 derived from human stomach cancer was used. […] NCI-N87 cells were purchased from ATCC. NCI-N87 cells were seeded into 96 well plates at 5,000 cells/50 μL/well (day −1). The compound of Example 42 was serially diluted and prepared (10 steps, 20 μM-6 nM) and added to each well of 96 well plates at 50 μL/well. […] Cell viability (%)=[(T7−C0)/(C7−C0)]×100

[6] = tested on: ZR-75-1 cells; assay: Test Example 6: Cell growth suppression activity 3 (ZR-75-1); assay type: cell-based; conditions: 144 h; ZR-75-1 cells derived from human breast cancer, 6 days of culture, ATP measurement (CellTiter-Glo 2.0)
Protocol: ZR-75-1 cells derived from human breast cancer were used. […] ZR-75-1 cells were purchased from ATCC. ZR-75-1 cells were seeded into 96 well plates at 5,000 cells/50 μL/well (day −1). The compound of Example 42 was serially diluted and prepared (10 steps, 20 μM-6 nM) and added to each well of 96 well plates at 50 μL/well. […] Cell viability (%)=[(T6−C0)/(C6−C0)]×100

[7] = tested on: PTDSS2 gene-disrupted (PTDSS2-KO) HCT116 cells; assay: cells; conditions: Homo sapiens, HCT-116, 72 h, read-out: Test Example 3 PTDSS2-KO HCT116 GI50
Protocol: as §1

[8] = tested on: PTDSS2-KO A375 cell-subcutaneous transplanted model; assay: Test Example 8: Antitumor activity on PTDSS2-KO A375 cell-subcutaneous transplanted model; assay type: in vivo, female BALB/c-nu/nu mice; conditions: orally, once daily for 10 successive days (QD×10), test end date
Source text: PTDSS2-KO A375 cells were transplanted to a right subcutaneous axillary portion of female BALB/c-nu/nu mice at a proportion of 1×10^6 cells/head, and when the tumor volume reached 100 to 300 mm^3 (estimated tumor volume (major axis×minor axis×minor axis/2)), mice were divided into groups of 6 each such that there was no difference between groups. The female BALB/c-nu/nu mice were purchased from CHARLES RIVER LABORATORIES JAPAN, INC. The compound of Example 42 was orally administered from the day of grouping, once daily for 10 successive days (QD×10). The tumor volume was measured until the next day of completion of the administration (test end date). 0.5% methylcellulose (MC) was administered to the vehicle control group as the vehicle.
The antitumor activity on PTDSS2-KO A375 cell-subcutaneous transplanted model of Test Example 8 was calculated by the following formula on each test end date. TGI %=(1−TVt/TVc)×100 • TGI: Tumor growth suppression rate • TVt: Group mean tumor volume of compound administration group on test end date • TVc: Group mean tumor volume of vehicle control group on test end date

| pIC50 [1] | Structure (SMILES) | TGI (%) ([2]; 10 mg/kg) | TGI (%) ([2]; 20 mg/kg) | TGI (%) ([2]; 40 mg/kg) | GI50 [3] | GI50 [7] | further results |
| --- | --- | --- | --- | --- | --- | --- | --- |
| < 5.30 | CC(F)(F)CN1C(=O)c2[nH]nc(-c3cccc4[nH]c(=O)oc34)c2C1c1ccc(Oc2cc(C(F)(F)F)cc(C(F)(F)F)c2)cc1 (single isomer, unassigned; (+)) [(+)-7-[4-{4-[3,5-bis(trifluoromethyl)phenoxy]phenyl}-5-(2,2-difluoropropyl)-6-oxo-1,4,5,6-tetrahydropyrrolo[3,4-c]pyrazol-3-yl]-1,3-benzoxazol-2(3H)-one] |  |  |  |  |  |  |
| 6.70 | CC(F)(F)CN1C(=O)c2[nH]nc(-c3cccc4[nH]c(=O)oc34)c2[C@@H]1c1ccc(Oc2cc(C(F)(F)F)cc(C(F)(F)F)c2)cc1 [Example 42, (−)-7-[4-{4-[3,5-bis(trifluoromethyl)phenoxy]phenyl}-5-(2,2-difluoropropyl)-6-oxo-1,4,5,6-tetrahydropyrrolo[3,4-c]pyrazol-3-yl]-1,3-benzoxazol-2(3H)-one] | 97% | 98% | 99% | > 25000 nM | 14 nM | GI50 [4]: 417 nM; GI50 [5]: 7.4 nM; GI50 [6]: 2900 nM; TGI (%) ([8]; Dose 3 mg/kg): 47%; TGI (%) ([8]; Dose 10 mg/kg): 100%; TGI (%) ([8]; Dose 30 mg/kg): 100%; TGI (%) ([8]; Dose 100 mg/kg): 100% |
|  | CC(F)(F)CN1C(=O)c2[nH]nc(-c3cccc4[nH]c(=O)oc34)c2C1c1ccc(Oc2ccc(OC(F)(F)F)c(C(F)(F)F)c2)cc1 (single isomer, unassigned; (-)) [Example 33, (−)-7-[5-(2,2-difluoropropyl)-6-oxo-4-{4-[4-(trifluoromethoxy)-3-(trifluoromethyl)phenoxy]phenyl}-1,4,5,6-tetrahydropyrrolo[3,4-c]pyrazol-3-yl]-1,3-benzoxazol-2(3H)-one] | 97% | 98% | 98% |  | 14 nM |  |
|  | CC(F)(F)CN1C(=O)c2[nH]nc(-c3cccc4[nH]c(=O)sc34)c2C1c1ccc(Oc2ccc(OC(F)(F)F)cc2)cc1 (stereo not shown) [Example 95, 7-[5-(2,2-Difluoropropyl)-6-oxo-4-{4-[4-(trifluoromethoxy)phenoxy]phenyl}-1,4,5,6-tetrahydropyrrolo[3,4-c]pyrazol-3-yl]-1,3-benzothiazol-2(3H)-one] |  |  |  | 7300 nM | 6400 nM |  |
|  | CC(F)(F)CN1C(=O)c2[nH]nc(-c3cccc4[nH]c(=O)oc34)c2C1c1ccnc(Oc2ccc(F)cc2)n1 (stereo not shown) [Example 73, 7-{5-(2,2-Difluoropropyl)-4-[2-(4-fluorophenoxy)pyrimidine-4-yl]-6-oxo-1,4,5,6-tetrahydropyrrolo[3,4-c]pyrazol-3-yl}-1,3-benzoxazol-2(3H)-one] |  |  |  | 19000 nM | 890 nM |  |
